The target of assay [1] is S531 multiple chimeric melanocortin receptor. The assay is described as follows: Radioligand binding saturation, chimera S531. To be noted: COS-1, S531, S-set, parts A/B/C MC5/MC3/MC1, pK ± SD.
The target of assay [2] is F514 multiple chimeric melanocortin receptor. The assay is described as follows: Radioligand binding saturation, chimera F514. The following applies: COS-1, F514, F-set, parts A/B/C MC5/MC1/MC4, pK ± SD.
For assay [3], the target named is F451 multiple chimeric melanocortin receptor. Kind of assay: Radioligand binding saturation, chimera F451. The following applies: COS-1, F451, F-set, parts A/B/C MC4/MC5/MC1, pK ± SD.
The target in assay [4] is S134 multiple chimeric melanocortin receptor. Kind of assay: Radioligand binding saturation, chimera S134. The following applies: COS-1, S134, S-set, parts A/B/C MC1/MC3/MC4, pK ± SD.
The next assay concerns the target MC4 receptor. The following applies: saturation; MC4 wt.; ref [31]; cited from earlier work. From the text:
(§1) Table 1 Affinities of multiple chimeric melanocortin receptors.

A further assay addresses MC1 receptor. The following applies: saturation; MC1 wt.; ref [31]; cited from earlier work.
Text: as §1

A further assay deals with MC5 receptor. To be noted: saturation; MC5 wt.; ref [31]; cited from earlier work.
Text: as §1

A further assay deals with MC3 receptor. The following applies: saturation; MC3 wt.; ref [31]; cited from earlier work.
Text: as §1

Assay [5] concerns the target F413 multiple chimeric melanocortin receptor. The assay is described as follows: Radioligand binding saturation, chimera F413. The following applies: COS-1, F413, F-set, parts A/B/C MC4/MC1/MC3, pK ± SD.
For assay [6], the target named is F354 multiple chimeric melanocortin receptor. The assay is described as follows: Radioligand binding saturation, chimera F354. To be noted: COS-1, F354, F-set, parts A/B/C MC3/MC5/MC4, pK ± SD.

Marks after values point to notes of the source that are not given here. Where a SMILES comes first, the peptide text is derived from it. [ ]: non-standard residue; d: D form. Tyr(3-I) = N[C@@H](Cc1ccc(O)c(I)c1)C(=O)O; Nle = CCCC[C@H](N)C(=O)O

Turning to `CCCC[C@H](NC(=O)[C@H](CO)NC(=O)[C@H](Cc1ccc(O)c(I)c1)NC(=O)[C@H](CO)NC(C)=O)C(=O)NCC(=O)N[C@@H](Cc1c[nH]cn1)C(=O)N[C@H](Cc1ccccc1)C(=O)N[C@@H](CCCNC(=N)N)C(=O)N[C@@H](Cc1c[nH]c2ccccc12)C(=O)NCC(=O)N[C@@H](CCCCN)C(=O)N1CCC[C@H]1C(=O)N[C@H](C(N)=O)C(C)C` [^125I-NDP-MSH, [^125I-Tyr^2, Nle^4, D-Phe^7]-α-MSH] (Ac-S[Tyr(3-I)]S[Nle]GH[dF]RWGKPV-NH2), the “pK (Kd)” value in [1] is listed as 8.96 ± 0.35; in assay [2], 9.19 ± 0.21; in assay [3] it was 9.06 ± 0.31; in assay [4], 9.30 ± 0.26; on MC4 receptor it was 8.64^a; on MC1 receptor, 9.96^a. The “pK (Kd)” value was 8.54^a on MC5 receptor, 9.40^a on MC3 receptor, 8.62 ± 0.16 in [5] and 8.80 ± 0.16 in assay [6].

(Values after PMC1435945, “Prediction of indirect interactions in proteins” (BMC Bioinformatics, 2006).)
